Results from article PMC11495047 (Journal of Virology, 2024).
Like-named read-outs stand apart in the source and are kept apart here.

Columns and labels:
[1] = molecular target: CedV vRdRp (rCedV TC-tr minigenome) (Cedar virus, UniProt J7GXK9); assay type: cell-based
[2] = system: rCedV; assay: microbe, parasite or virus in culture; assay type: cell-based
[3] = system: rNiV; assay: microbe, parasite or virus in culture; assay type: cell-based
[4] = molecular target: NiV vRdRp (rNiV TC-tr minigenome) (Nipah virus, UniProt Q997F0)
[5] = in vivo; cited from earlier work
[6] = molecular target: GhV vRdRp (rGhV TC-tr minigenome) (Ghana virus, UniProt H9M6P4); assay type: cell-based

| Structure (SMILES) | IC50 [1] | IC50 ([2]; Cedar virus, BSR-T7/5, 24 h) | IC50 [3] | IC50 ([3]; Henipavirus nipahense, BHK) | susceptibility of rNiV TC-tr minigenome [4] | oral bioavailability [5] | IC50 [6] | IC50 ([1]; read-out: IC50) | IC50 ([2]; read-out: IC50) |
| --- | --- | --- | --- | --- | --- | --- | --- | --- | --- |
| O=c1ccn([C@@H]2O[C@](F)(CO)[C@@H](O)[C@H]2O)c(=O)[nH]1 [EIDD-2749, 4′-Fluorouridine] | 2.1 µM | 700 nM | 2900 nM | 2600 nM | – | – | – | – | – |
| NC(=O)c1c(F)cccc1-c1cccc2cnccc12 [GHP-88309] | – | – | – | – | no susceptibility | high oral bioavailability | 1700 nM | 5.7 µM | 1600 nM |
